Values quoted from earlier work as cited in patent US20260207657A1, “ANTISEPTIC COMPOSITIONS AND METHODS” (Solventum Intellectual Properties Company, priority 2022, published 2026).

Conditions: 25° C.

SMILES: II [molecular iodine]
- Solubility in water: 0.03 wt-%
